In article PMC6542772, “Plant Cytosolic Ascorbate Peroxidase with Dual Catalytic Activity Modulates Abiotic Stress Tolerances” (iScience, 2019):

Assays:
Format in all cases: biochemical
AtCytAPX1 = biological target: T1, AtCytAPX1 (Arabidopsis thaliana, UniProt Q05431); assay: APX activity assay, in-gel and in solution; conditions: H2O2 co-substrate
T1 construct: gene APX1; ~27 kDa; MBP fusion from E. coli, MBP removed by factor Xa
T1 sequence (Q05431 1-250): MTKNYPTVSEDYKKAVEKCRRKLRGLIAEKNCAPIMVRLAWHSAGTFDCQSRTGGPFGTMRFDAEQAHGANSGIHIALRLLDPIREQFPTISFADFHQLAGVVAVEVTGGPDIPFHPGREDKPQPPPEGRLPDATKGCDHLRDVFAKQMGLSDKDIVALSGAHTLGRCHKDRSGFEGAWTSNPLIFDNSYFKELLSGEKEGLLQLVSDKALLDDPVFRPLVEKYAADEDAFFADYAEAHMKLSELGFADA

[1] = biological target: T2, OgCytAPX1 (Oncidium cytosolic ascorbate peroxidase 1) (Oncidium hybrid cultivar, UniProt B8XF08); assay: enzyme kinetics, Lineweaver-Burk; conditions: H2O2 co-substrate; APX activity
T2 construct: full length, 250 residues, ~27 kDa; cloned from pseudobulb mRNA; MBP fusion (pMAL-c5x) from E. coli BL21, MBP removed by factor Xa
T2 sequence (B8XF08 entry or part of it): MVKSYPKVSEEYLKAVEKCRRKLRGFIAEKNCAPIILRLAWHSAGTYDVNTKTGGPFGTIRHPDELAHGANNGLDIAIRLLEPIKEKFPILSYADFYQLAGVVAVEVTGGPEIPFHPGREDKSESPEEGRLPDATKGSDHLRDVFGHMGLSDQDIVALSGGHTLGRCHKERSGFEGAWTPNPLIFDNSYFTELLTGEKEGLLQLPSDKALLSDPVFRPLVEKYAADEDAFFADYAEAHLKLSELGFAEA

CytAPX1 from G. max (Gm) = biological target: T3, CytAPX1 from G. max (Gm) (Glycine max, UniProt Q43758); assay: APX activity assay, in-gel and in solution; conditions: H2O2 co-substrate
T3 construct: gene apx1; recombinant from E. coli, purified
T3 sequence (Q43758 1-250): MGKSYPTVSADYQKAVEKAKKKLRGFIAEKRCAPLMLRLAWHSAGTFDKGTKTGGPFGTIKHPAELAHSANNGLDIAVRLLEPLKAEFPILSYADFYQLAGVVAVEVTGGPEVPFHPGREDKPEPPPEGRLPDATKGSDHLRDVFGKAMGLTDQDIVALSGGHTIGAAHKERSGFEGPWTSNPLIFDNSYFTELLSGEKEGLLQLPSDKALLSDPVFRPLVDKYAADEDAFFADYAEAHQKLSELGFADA

[2] = biological target: T4, CytAPX1 from O. sativa (Os) (Oryza sativa, UniProt Q10N21); assay: APX activity assay, in-gel and in solution; conditions: H2O2 co-substrate
T4 construct: gene APX1; recombinant from E. coli, purified
T4 sequence (Q10N21 2-250): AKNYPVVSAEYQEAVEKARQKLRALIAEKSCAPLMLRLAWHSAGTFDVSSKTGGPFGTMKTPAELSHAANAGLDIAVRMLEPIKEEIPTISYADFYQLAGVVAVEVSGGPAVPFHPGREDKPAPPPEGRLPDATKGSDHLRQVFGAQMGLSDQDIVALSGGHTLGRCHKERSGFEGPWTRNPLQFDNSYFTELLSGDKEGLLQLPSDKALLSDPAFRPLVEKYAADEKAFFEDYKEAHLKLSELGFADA

`O=C1O[C@H]([C@@H](O)CO)C(O)=C1O` [AsA] was tested, and the “APX activity assay, in-gel and in solution” value (“APX activity assay” below) (AtCytAPX1) was “AtCytAPX1 displayed only APX activity”, the Km [1] was 616 µM and the “APX activity assay” value (CytAPX1 from G. max (Gm)) was “Recombinant proteins from G. max, O. sativa, and Z. mays displayed both AsA and GSH”. For the same compound, the “APX activity assay” value [2] was “Recombinant proteins from G. max, O. sativa, and Z. mays displayed both AsA and GSH”.
